Values quoted from earlier work as cited in patent publication US6743953B2, “Process for the preparation of xanthophyll crystals” (Kancor Flavours & Extracts Ltd., priority 2002, dated 2004).
Read-outs that look alike come from different tables or passages of the source.

What was measured:
[1] = not given; remark: listed apart in the source

## CC1=C[C@H](O)CC(C)(C)[C@H]1/C=C/C(C)=C/C=C/C(C)=C/C=C/C=C(C)/C=C/C=C(C)/C=C/C1=C(C)C[C@@H](O)CC1(C)C [Lutein, (3R,3′R,6′R)-β,ε-carotene-3,3′-diol]
Solvent Acetone
  Solubility of Lutein in Solvent: 800 Mg/litre
Solvent Benzene
  Solubility of Lutein in Solvent: 600 Mg/litre
Solvent Chloroform
  Solubility of Lutein in Solvent: 6000 Mg/litre
Solvent Cyclohexanone
  Solubility of Lutein in Solvent: 4000 Mg/litre
Solvent Dichloromethane
  Solubility of Lutein in Solvent: 800 Mg/litre
Solvent Ethyl Acetate
  Solubility of Lutein in Solvent: 800 Mg/litre
Solvent Hexane
  Solubility of Lutein in Solvent: 20 Mg/litre
Solvent Tetrahydrofuran
  Solubility of Lutein in Solvent: 8000 Mg/litre
Solvent Toluene
  Solubility of Lutein in Solvent: 400 Mg/litre
[1]; solvent Acetone
  Stability of Lutein in Solvent: Good
[1]; solvent Benzene
  Stability of Lutein in Solvent: Good
[1]; solvent Chloroform
  Stability of Lutein in Solvent: Good
[1]; solvent Cyclohexanone
  Stability of Lutein in Solvent: Poor
[1]; solvent Dichloromethane
  Stability of Lutein in Solvent: Good
[1]; solvent Ethyl Acetate
  Stability of Lutein in Solvent: Good
[1]; solvent Hexane
  Stability of Lutein in Solvent: Good
[1]; solvent Tetrahydrofuran
  Stability of Lutein in Solvent: Good
[1]; solvent Toluene
  Stability of Lutein in Solvent: Good
